Laboratory results from the NIST ThermoML archive (doi:10.1016/j.fluid.2018.01.025).

Tests used:
[1] = xn = mol fraction of the nth substance listed; conditions: 101 kPa, Liquid; for speed of sound: Frequency=2 MHz, Linear variable-path acoustic interferometer; for mass density: Vibrating tube method
[2] = 101.33 kPa, Liquid; for speed of sound: Frequency=2 MHz, Linear variable-path acoustic interferometer; for mass density: Vibrating tube method

CN(C)c1ccccc1 [N,N-dimethylaniline] + OCc1ccccc1
[1]
Conditions | mass density, 303.15 K [kg/m3] | mass density, 308.15 K [kg/m3] | mass density, 313.15 K [kg/m3] | mass density, 318.15 K [kg/m3] | mass density, 323.15 K [kg/m3] | speed of sound, 303.15 K [m/s] | speed of sound, 313.15 K [m/s]
x2 = 0.12 | 957.18 | 952.61 | 948.78 | 944.35 | 940.48 | 1475.2 | 1438
x2 = 0.2348 | 966.14 | 961.64 | 957.75 | 953.35 | 949.47 | 1480.2 | 1443.8
x2 = 0.3447 | 974.99 | 970.58 | 966.64 | 962.3 | 958.43 | 1484.8 | 1449.3
x2 = 0.4501 | 983.81 | 979.48 | 975.5 | 971.22 | 967.35 | 1489.2 | 1454.8
x2 = 0.5511 | 992.59 | 988.35 | 984.36 | 980.15 | 976.28 | 1493.5 | 1460.3
x2 = 0.6481 | 1001.4 | 997.24 | 993.26 | 989.1 | 985.25 | 1497.6 | 1465.7
x2 = 0.7412 | 1010.24 | 1006.19 | 1002.16 | 998.09 | 994.24 | 1501.5 | 1471.1
x2 = 0.8308 | 1019.15 | 1015.2 | 1011.16 | 1007.16 | 1003.34 | 1505.1 | 1476.4
x2 = 0.917 | 1028.12 | 1024.28 | 1020.19 | 1016.31 | 1012.49 | 1508.5 | 1481.7

Nc1ccccc1Cl [2-chlorobenzeneamine]
[2]
Conditions | mass density [kg/m3] | speed of sound [m/s]
303.15 K | 1202.38 | 1468
308.15 K | 1197.56 | –
313.15 K | 1192.97 | 1437
318.15 K | 1187.92 | –
323.15 K | 1183.26 | –

CNc1ccccc1 [N-methylaniline]
[2]
Conditions | mass density [kg/m3] | speed of sound [m/s]
303.15 K | 981.72 | 1549
308.15 K | 976.04 | –
313.15 K | 970.89 | 1511
318.15 K | 965.81 | –
323.15 K | 961.13 | –

Nc1cccc(Cl)c1 [3-chlorobenzenamine] + OCc1ccccc1
[1]
Conditions | mass density, 303.15 K [kg/m3] | mass density, 308.15 K [kg/m3] | mass density, 313.15 K [kg/m3] | mass density, 318.15 K [kg/m3] | mass density, 323.15 K [kg/m3] | speed of sound, 303.15 K [m/s] | speed of sound, 313.15 K [m/s]
x2 = 0.1021 | 1189.69 | 1184.95 | 1180.24 | 1175.53 | 1170.9 | 1515.4 | 1484.3
x2 = 0.2037 | 1173.42 | 1168.65 | 1163.79 | 1159.09 | 1154.36 | 1514.9 | 1484.6
x2 = 0.3048 | 1156.94 | 1152.15 | 1147.27 | 1142.57 | 1137.82 | 1514.5 | 1484.9
x2 = 0.4055 | 1140.31 | 1135.57 | 1130.63 | 1125.95 | 1121.26 | 1514.1 | 1485.2
x2 = 0.5057 | 1123.48 | 1118.82 | 1113.94 | 1109.34 | 1104.71 | 1513.7 | 1485.5
x2 = 0.6054 | 1106.48 | 1101.95 | 1097.12 | 1092.63 | 1088.14 | 1513.3 | 1485.8
x2 = 0.7048 | 1089.33 | 1084.96 | 1080.3 | 1075.88 | 1071.54 | 1512.9 | 1486.1
x2 = 0.8036 | 1072.05 | 1067.86 | 1063.4 | 1059.13 | 1054.96 | 1512.6 | 1486.4
x2 = 0.902 | 1054.66 | 1050.79 | 1046.44 | 1042.37 | 1038.37 | 1512.3 | 1486.7

Nc1cccc(Cl)c1 [3-chlorobenzenamine]
[2]
Conditions | mass density [kg/m3] | speed of sound [m/s]
303.15 K | 1205.75 | 1516
308.15 K | 1201.14 | –
313.15 K | 1196.56 | 1484
318.15 K | 1191.98 | –
323.15 K | 1187.41 | –

CNc1ccccc1 [N-methylaniline] + OCc1ccccc1
[1]
Conditions | mass density, 303.15 K [kg/m3] | mass density, 308.15 K [kg/m3] | mass density, 313.15 K [kg/m3] | mass density, 318.15 K [kg/m3] | mass density, 323.15 K [kg/m3] | speed of sound, 303.15 K [m/s] | speed of sound, 313.15 K [m/s]
x2 = 0.1044 | 987.67 | 980.39 | 976.87 | 971.88 | 967.24 | 1545 | 1507.9
x2 = 0.2078 | 993.53 | 986.48 | 982.82 | 977.93 | 973.34 | 1540.9 | 1505.2
x2 = 0.3102 | 999.29 | 992.49 | 988.73 | 983.96 | 979.41 | 1537.1 | 1502.6
x2 = 0.4116 | 1004.92 | 998.45 | 994.6 | 989.97 | 985.5 | 1533.3 | 1500.1
x2 = 0.512 | 1010.45 | 1004.34 | 1000.43 | 995.91 | 991.54 | 1529.6 | 1497.7
x2 = 0.6115 | 1015.9 | 1010.22 | 1006.25 | 1001.87 | 997.59 | 1526.1 | 1495.3
x2 = 0.71 | 1021.26 | 1016.06 | 1012.02 | 1007.8 | 1003.64 | 1522.5 | 1493
x2 = 0.8076 | 1026.57 | 1021.85 | 1017.82 | 1013.73 | 1009.68 | 1518.8 | 1490.8
x2 = 0.9042 | 1031.88 | 1027.64 | 1023.58 | 1019.63 | 1015.72 | 1515.3 | 1488.7

Nc1ccccc1Cl [2-chlorobenzeneamine] + OCc1ccccc1
[1]
Conditions | mass density, 303.15 K [kg/m3] | mass density, 308.15 K [kg/m3] | mass density, 313.15 K [kg/m3] | mass density, 318.15 K [kg/m3] | mass density, 323.15 K [kg/m3] | speed of sound, 303.15 K [m/s] | speed of sound, 313.15 K [m/s]
x2 = 0.1018 | 1188.36 | 1183.05 | 1178.05 | 1172.74 | 1167.93 | 1470.9 | 1440.8
x2 = 0.2031 | 1173.95 | 1168.26 | 1162.88 | 1157.37 | 1152.55 | 1474.4 | 1445.4
x2 = 0.3041 | 1158.94 | 1153 | 1147.35 | 1141.76 | 1136.87 | 1478 | 1450.2
x2 = 0.4047 | 1143.31 | 1137.27 | 1131.48 | 1125.89 | 1121.03 | 1482.1 | 1455
x2 = 0.5049 | 1126.98 | 1121.04 | 1115.21 | 1109.7 | 1104.91 | 1486.4 | 1459.9
x2 = 0.6047 | 1110.07 | 1104.31 | 1098.62 | 1093.31 | 1088.6 | 1490.9 | 1464.9
x2 = 0.7041 | 1092.58 | 1087.09 | 1081.73 | 1076.67 | 1072.12 | 1495.6 | 1470.1
x2 = 0.8031 | 1074.51 | 1069.49 | 1064.51 | 1059.84 | 1055.47 | 1500.6 | 1475.4
x2 = 0.9017 | 1056 | 1051.53 | 1047 | 1042.77 | 1038.7 | 1506 | 1481

Nc1ccccc1 [aniline] + OCc1ccccc1
[1]
Conditions | mass density, 303.15 K [kg/m3] | mass density, 308.15 K [kg/m3] | mass density, 313.15 K [kg/m3] | mass density, 318.15 K [kg/m3] | mass density, 323.15 K [kg/m3] | speed of sound, 303.15 K [m/s] | speed of sound, 313.15 K [m/s]
x2 = 0.0895 | 1015.86 | 1011.46 | 1007.17 | 1003.04 | 999.07 | 1605.7 | 1570.1
x2 = 0.181 | 1018.68 | 1014.15 | 1009.79 | 1005.68 | 1001.68 | 1596.1 | 1561.9
x2 = 0.2748 | 1021.37 | 1016.76 | 1012.36 | 1008.28 | 1004.27 | 1586.4 | 1553.5
x2 = 0.3709 | 1023.88 | 1019.29 | 1014.9 | 1010.83 | 1006.82 | 1576.5 | 1544.9
x2 = 0.4693 | 1026.28 | 1021.76 | 1017.36 | 1013.33 | 1009.35 | 1566.6 | 1536
x2 = 0.5701 | 1028.61 | 1024.17 | 1019.82 | 1015.83 | 1011.87 | 1556.3 | 1526.9
x2 = 0.6735 | 1030.85 | 1026.55 | 1022.24 | 1018.31 | 1014.35 | 1545.9 | 1517.5
x2 = 0.7796 | 1033.02 | 1028.88 | 1024.64 | 1020.74 | 1016.84 | 1535.2 | 1507.8
x2 = 0.8884 | 1035.14 | 1031.18 | 1027.03 | 1023.15 | 1019.33 | 1523.9 | 1497.7

Nc1ccccc1 [aniline]
[2]
Conditions | mass density [kg/m3] | speed of sound [m/s]
303.15 K | 1012.78 | 1615
308.15 K | 1008.64 | –
313.15 K | 1004.49 | 1578
318.15 K | 1000.36 | –
323.15 K | 996.43 | –

CN(C)c1ccccc1 [N,N-dimethylaniline]
[2]
Conditions | mass density [kg/m3] | speed of sound [m/s]
303.15 K | 948.18 | 1470
308.15 K | 943.55 | –
313.15 K | 939.78 | 1432
318.15 K | 935.3 | –
323.15 K | 931.45 | –

OCc1ccccc1 [benzenemethanol]
[2]
Conditions | mass density [kg/m3] | speed of sound [m/s]
303.15 K | 1037.18 | 1512
308.15 K | 1033.45 | –
313.15 K | 1029.36 | 1487
318.15 K | 1025.57 | –
323.15 K | 1021.78 | –
